The subject of assay [1] is UC 28 gene message in LnCaP cells. The following applies: charcoal stripped serum 48 hours, DHT 0, 0.1, 1, 10 and 100 nM for 24 hours, normalized to β-actin. As for the experimental part: FIG. 17. […] LnCaP cells were cultured in RPMI-1640 with 10% charcoal stripped serum for 48 hours prior to treatment. The cells were incubated in DHT for 24 hours. […] RT-PCR message was normalized to β-actin.
Since hormones regulate both prostate and mammary glands, the possibility that expression of this gene is modified by androgen was examined.

Assay [2] has as its system PSMA messenger RNA in LNCAP prostate cancer cell line. The conditions noted are these: LNCAP cells after exposure (Israeli et al., 1994); cited from earlier work.
The next assay concerns B 16 melanoma cell line. The following applies: B 16 melanoma cell line (Rieber & Rieber, 1994); cited from earlier work.
Assay [3] concerns cyclin A in DU-145 prostate carcinoma cell line. The conditions noted are these: DU-145 cells (Qiao et al., 1994); cited from earlier work.

Where two headings read alike, the source gives them in different places.

As for `C[C@]12CCC(=O)C[C@@H]1CC[C@@H]1[C@@H]2CC[C@]2(C)[C@@H](O)CC[C@@H]12` [DHT, dihydrotestosterone], the “UC 28 gene expression (UC 28 message level by RT-PCR)” value was “increasing UC 28 message level” in assay [1]; “stimulated by dihydrotestosterone (DHT) in a time and dosage-dependent manner” in assay [1] (listed as dihydrotestosterone). For the same compound, the “PSMA mRNA down-regulation” value in assay [2] is 8-10 fold.
Regarding `N[C@@H](Cc1ccc(O)cc1)C(=O)O` [L-tyrosine], in the assay on B 16 melanoma cell line, the “cyclin A activity” value was “decrease in cyclin A activity”; the “melanogenesis and replicative senescence” value was “promote increased melanogenesis and replicative senescence”.
`Cc1ccc(C(=O)Nc2ccc(S(=O)(=O)O)c3cc(S(=O)(=O)O)cc(S(=O)(=O)O)c23)cc1NC(=O)c1cccc(NC(=O)Nc2cccc(C(=O)Nc3cc(C(=O)Nc4ccc(S(=O)(=O)O)c5cc(S(=O)(=O)O)cc(S(=O)(=O)O)c45)ccc3C)c2)c1` [Suramin]: the “expression of cyclin A” value in assay [3] is on record as “reduces the expression of cyclin A”.
